18 compounds from PubChem BioAssay AID200 (DTP/NCI, 2004) can be followed below.

The structures appear in SMILES notation. “And” between values parts separate entries of the source, which are not always exact repeats. Equal entries are not always repeated. Inconclusive results and toxic doses are left out. Where a SMILES comes first, the peptide text is derived from it. The star is where a group is joined. For = O=C*

The test has as its system B6C3F1 mice, B16 melanoma ip, median survival T/C. Nature of the test: NCI In Vivo Anticancer Drug Screen. Data for tumor model B16 Melanoma (intraperitoneal) in B6C3F1 mice. Particulars: endpoint: median survival time, higher = longer survival. The essentials:
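Antitumor effect was judged in mice with transplanted tumors by dividing the treated group's survival measure by that of vehicle controls.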

The mark [1] stands for this setting: dose: 12.5 mg/kg/injection, schedule: Q01DX009 (ip), vehicle: water.
The mark [2] stands for this setting: dose: 50.0 mg/kg/injection, schedule: Q01DX009 (ip), vehicle: water.
Setting [3] is: dose: 25.0 mg/kg/injection, schedule: Q01DX009 (ip), vehicle: saline with Tween-80.
The mark [4] stands for this setting: dose: 50.0 mg/kg/injection, schedule: Q01DX009 (ip), vehicle: saline with Tween-80.
Where [5] appears, read: dose: 100.0 mg/kg/injection, schedule: Q01DX009 (ip), vehicle: saline with Tween-80.
Where [6] appears, read: dose: 200.0 mg/kg/injection, schedule: Q01DX009 (ip), vehicle: saline with Tween-80.
Where [7] appears, read: dose: 12.5 mg/kg/injection, schedule: Q01DX009 (ip), vehicle: Klucel (hydroxypropylcellulose) (HPC).
Where [8] appears, read: dose: 25.0 mg/kg/injection, schedule: Q01DX009 (ip), vehicle: Klucel (hydroxypropylcellulose) (HPC).
Setting [9] is: dose: 50.0 mg/kg/injection, schedule: Q01DX009 (ip), vehicle: Klucel (hydroxypropylcellulose) (HPC).
Where [10] appears, read: dose: 100.0 mg/kg/injection, schedule: Q01DX009 (ip), vehicle: Klucel (hydroxypropylcellulose) (HPC).
Setting [11] is: dose: 200.0 mg/kg/injection, schedule: Q01DX009 (ip), vehicle: Klucel (hydroxypropylcellulose) (HPC).
Setting [12] is: dose: 12.5 mg/kg/injection, schedule: Q01DX009 (ip), vehicle: saline with Tween-80.
The mark [13] stands for this setting: dose: 400.0 mg/kg/injection, schedule: Q01DX009 (ip), vehicle: Klucel (hydroxypropylcellulose) (HPC).
The mark [14] stands for this setting: dose: 50.0 mg/kg/injection, schedule: Q01DX009 (ip), vehicle: saline.
[15] abbreviates: dose: 100.0 mg/kg/injection, schedule: Q01DX009 (ip), vehicle: saline.
Setting [16] is: dose: 200.0 mg/kg/injection, schedule: Q01DX009 (ip), vehicle: saline.

Take `NC(CNC(=O)CBr)C(=O)O` (centres undefined): the T/C was 112 % of control and 117 % of control and 104 % of control (dose: 6.25 mg/kg/injection, schedule: Q01DX009 (ip), vehicle: water); 116 % of control and 118 % of control under setting [1]; 153 % of control under setting [2].

`N#CCS(=O)(=O)c1cccc[n+]1[O-]`: the T/C is 102 % of control under setting [3], 101 % of control under setting [4], 117 % of control under setting [5] and 121 % of control under setting [6].

As to `C=C[Si]12OCCN(CCO1)CCO2`, the T/C under setting [7] was 112 % of control and 96 % of control; the T/C under setting [8] is 95 % of control and 99 % of control; the T/C under setting [9] was 101 % of control; the T/C under setting [10] is 111 % of control and 95 % of control; the T/C under setting [11] is 93 % of control and 104 % of control.

For the compound `Clc1ccc(CN2COc3c(ccc4cccnc34)C2)cc1Cl`, the T/C was 102 % of control under setting [12], 109 % of control under setting [3] and 92 % of control under setting [4].

As to `CC1CCC(NC(=O)N(CCCl)N=O)CC1` (centres undefined), the T/C is 114 % of control (dose: 2.5 mg/kg/injection, schedule: Q01DX005 (ip), vehicle: other); 107 % of control (dose: 2.5 mg/kg/injection, schedule: Q01DX005 (iv), vehicle: other); 98 % of control (dose: 4.0 mg/kg/injection, schedule: Q04DX002 (ip), vehicle: other); 151 % of control (dose: 5.0 mg/kg/injection, schedule: Q01DX005 (ip), vehicle: other); 113 % of control (dose: 8.0 mg/kg/injection, schedule: Q04DX002 (ip), vehicle: other); 111 % of control (dose: 10.0 mg/kg/injection, schedule: Q01DX001 (iv), vehicle: other). The T/C is, setting by setting: (dose: 10.0 mg/kg/injection, schedule: Q01DX005 (ip), vehicle: other) 294 % of control; (dose: 16.0 mg/kg/injection, schedule: Q04DX002 (ip), vehicle: other) 165 % of control; (dose: 20.0 mg/kg/injection, schedule: Q01DX001 (ip), vehicle: other) 162 % of control; (dose: 20.0 mg/kg/injection, schedule: Q01DX001 (iv), vehicle: other) 168 % of control; (dose: 32.0 mg/kg/injection, schedule: Q04DX002 (ip), vehicle: other) 76 % of control; (dose: 40.0 mg/kg/injection, schedule: Q01DX001 (ip), vehicle: other) 223 % of control. Also, under “dose: 40.0 mg/kg/injection, schedule: Q01DX001 (iv), vehicle: other”, the T/C is 222 % of control.

Take `CCOc1ncc([N+](=O)[O-])c(OCC)n1`: the T/C under setting [4] is 89 % of control and 106 % of control; the T/C under setting [5] was 103 % of control; the T/C under setting [6] was 91 % of control and 96 % of control.

For `COc1cc(OC)c(OC)cc1/C=C\c1ccnc2ccccc12`, the T/C runs as follows: under setting [7], 98 % of control; under setting [8], 105 % of control; under setting [9], 108 % of control and 111 % of control; under setting [10], 120 % of control and 107 % of control; under setting [11], 97 % of control; under setting [13], 151 % of control.

With `O=C(NC(=S)Nc1ccccc1)c1ccccc1`, the T/C (dose: 9.4 mg/kg/injection, schedule: Q01DX009 (ip), vehicle: Klucel (hydroxypropylcellulose) (HPC)) is 99 % of control; the T/C (dose: 18.75 mg/kg/injection, schedule: Q01DX009 (ip), vehicle: Klucel (hydroxypropylcellulose) (HPC)) is 94 % of control; the T/C (dose: 37.5 mg/kg/injection, schedule: Q01DX009 (ip), vehicle: Klucel (hydroxypropylcellulose) (HPC)) was 101 % of control; the T/C (dose: 75.0 mg/kg/injection, schedule: Q01DX009 (ip), vehicle: Klucel (hydroxypropylcellulose) (HPC)) was 103 % of control.

For the compound `NC(=S)N/N=C\c1ncccc1OCc1cccc(N)c1`, the T/C (dose: 12.5 mg/kg/injection, schedule: Q01DX009 (ip), vehicle: distilled water + Tween-80) was 86 % of control; the T/C under setting [12] is 103 % of control; the T/C (dose: 25.0 mg/kg/injection, schedule: Q01DX009 (ip), vehicle: distilled water + Tween-80) was 100 % of control; the T/C under setting [3] is 109 % of control and 113 % of control and 106 % of control; the T/C (dose: 50.0 mg/kg/injection, schedule: Q01DX009 (ip), vehicle: distilled water + Tween-80) was 114 % of control; the T/C (dose: 100.0 mg/kg/injection, schedule: Q01DX009 (ip), vehicle: distilled water + Tween-80) was 108 % of control. Also, the T/C is, setting by setting: (dose: 200.0 mg/kg/injection, schedule: Q01DX009 (ip), vehicle: distilled water + Tween-80) 118 % of control; (dose: 400.0 mg/kg/injection, schedule: Q01DX009 (ip), vehicle: distilled water + Tween-80) 99 % of control; (dose: 400.0 mg/kg/injection, schedule: Q01DX009 (ip), vehicle: saline with Tween-80) 113 % of control and 121 % of control.

On to `CN(C)CCNc1ccc(CO)c2sc3ccc(O)cc3c(=O)c12`, for which the T/C is 327 % of control (dose: 18.0 mg/kg/injection, schedule: Q01DX009 (ip), vehicle: saline with Tween-80); 218 % of control (dose: 30.0 mg/kg/injection, schedule: Q01DX009 (ip), vehicle: saline with Tween-80); 295 % of control under setting [4]; 327 % of control (dose: 83.33 mg/kg/injection, schedule: Q01DX009 (ip), vehicle: saline with Tween-80).

In the case of `Nc1nc(=S)c2ncn(C3CC(O)C(CO)O3)c2[nH]1` (centres undefined), the T/C runs as follows: (dose: 12.5 mg/kg/injection, schedule: Q01DX009 (ip), vehicle: saline) 101 % of control; (dose: 25.0 mg/kg/injection, schedule: Q01DX009 (ip), vehicle: saline) 96 % of control; under setting [14], 104 % of control; under setting [15], 104 % of control; under setting [16], 103 % of control; (dose: 400.0 mg/kg/injection, schedule: Q01DX009 (ip), vehicle: saline) 103 % of control.

Consider `CC1(C)CC1(Br)Br`, for which the T/C by setting is: (dose: 6.25 mg/kg/injection, schedule: Q01DX009 (ip), vehicle: saline with Tween-80) 100 % of control; under setting [12], 93 % of control; under setting [3], 104 % of control; under setting [4], 97 % of control; under setting [5], 100 % of control; under setting [6], 92 % of control.

In the case of `CSCCC(NC=O)C(=O)NC(C(=O)O)C(C)C` (stereo not drawn) (For-Met-Val-OH; configuration not given here), the T/C runs as follows: under setting [8], 101 % of control; under setting [9], 101 % of control; under setting [10], 107 % of control; under setting [11], 105 % of control; under setting [13], 98 % of control.

As for `O=C(O)C1CC(c2ccccc2)=NN1c1ccccc1` (centres undefined), the T/C was 113 % of control under setting [1]; 120 % of control (dose: 25.0 mg/kg/injection, schedule: Q01DX009 (ip), vehicle: water); 107 % of control under setting [2]; 103 % of control (dose: 100.0 mg/kg/injection, schedule: Q01DX009 (ip), vehicle: water); 110 % of control (dose: 200.0 mg/kg/injection, schedule: Q01DX009 (ip), vehicle: water).

For `C[C@]12CCC(=O)C=C1CC[C@@H]1[C@@H]2C(=O)C[C@@]2(C)[C@H]1CC[C@]2(O)C(=O)CO`, the T/C is, setting by setting: under setting [9], 106 % of control; under setting [10], 93 % of control; under setting [11], 108 % of control; under setting [13], 117 % of control.

Turning to `NCC(=O)N1CCCC1C(=O)NCC(=O)NCC(=O)O` (centres undefined) (HELM PEPTIDE1{G.[O=C(C1CCCN1[*:1])[*:2]].G.G}$$$$V2.0), the T/C reads like this: under setting [14], 92 % of control; under setting [15], 100 % of control; under setting [16], 95 % of control.

Turning to `CCN(CC)c1ccc2[nH]c3c(C(N)=O)cc(=O)c(=O)c=3oc2c1`, the T/C under setting [12] is 96 % of control and the T/C under setting [3] was 112 % of control.

`[N-]=[N+]=[N-]`: the T/C is 101 % of control (dose: 1.5 mg/kg/injection, schedule: Q01DX009 (ip), vehicle: saline); 90 % of control (dose: 3.0 mg/kg/injection, schedule: Q01DX009 (ip), vehicle: saline); 103 % of control (dose: 6.0 mg/kg/injection, schedule: Q01DX009 (ip), vehicle: saline); 108 % of control (dose: 12.0 mg/kg/injection, schedule: Q01DX009 (ip), vehicle: saline).
